Measured values reported in patent publication US12679825B2, “Crystalline and amorphous forms of a δ-opioid modulator” (Trevena, Inc., priority 2020, dated 2026).
Like-named read-outs stand apart in the source and are kept apart here.

Tests used:
[1] = Potentiometric (pH-metric) LogP and logD profile; format: physicochemical; conditions: for logP: 25.0±0.2° C.
Description: (§1) Crystalline forms of the compound of Formula I, including the crystalline Form I, were analyzed using pKa and LogP. An automated titrator system with an incorporated UV-Vis spectrometer (SiriusT3™, Pion Inc.) was used to acquire the spectrometric and potentiometric data. The optical system consisted of a photodiode array detector with a deuterium lamp and a fiber optic dip probe.
(§2) The titrator module consisted of a temperature controller (by Peltier device with in-situ thermocouple), pH electrode, an overhead stirrer, and motorized dispensers for the automatic delivery of assay titrants and reagents via capillaries. The instrumentation was operated using SiriusT3Control software (V2.0). Data processing and generation of the reported pKa and logP values was carried out using SiriusT3Refine software (V2.0). The titrants used were 0.5 M hydrochloric acid and 0.5 M potassium hydroxide, standardized using potassium hydrogen phthalate. ACS or HPLC grade methanol cosolvent was used for pKa determination. Spectrophotometric experiments were carried out in the presence of a mid-range buffer solution (15 mM di-potassium hydrogen orthophosphate) or Neutral Linear Buffer™ to prevent uncontrolled pH-drift at mid-range pH. For logP assays, ACS or HPLC grade 1-octanol was used as the partition solvent.
All experiments were carried out at a controlled temperature of 25.0±0.2° C. The pH range of titration assays is set between pH 2.0 to pH 12.0 unless otherwise stated. Prior to use, 0.5 M KOH base titrant is standardized by the titration of approximately 15 mg of potassium hydrogen phthalate, in triplicate. 0.5 M HCl titrant is subsequently standardized against the base titrant. The assay media for pKa determination is kept at a constant ionic strength of 0.15 M KCl and under argon atmosphere.
0.79 mg of sample was weighed into a 5 mL glass assay vial and titrated in a pH-metric triple titration in the presence of octanol from pH 2.0-12.0 at concentrations of 1.5-0.5 mM. The partition ratios of octanol/water were 0.012:1, 0.038:1 and 0.517:1. LogP was determined by comparing the pKa in water with the apparent pKa in the presence of octanol. The pH-metric logP experiment was conducted at 25.0±0.2° C. A lipophilicity profile (logD vs. pH) of the compound was calculated from the experimentally determined pKa and logP. The logD values are detailed in Table 12.

[2] = Spectrometric (UV-metric) pKa; format: physicochemical; conditions: base; aqueous value by Yasuda-Shedlovsky extrapolation from methanol-water co-solvent; 25.0±0.2° C.; 0.15 M KCl
Description: as §1, §2
All experiments were carried out at a controlled temperature of 25.0±0.2° C. […]

COCCOc1cccc([C@@H]2CCN(CCn3cccc3)[C@H](C)[C@H]2COc2ccc3c(c2)C(=O)NC3)c1 [crystalline Form I, (−)-6-{[(trans, trans)-4-[3-(2-methoxyethoxy)phenyl]-2-methyl-1-[2-(1H-pyrrol-1-yl)ethyl]piperidin-3-yl]methoxy}-2,3-dihydro-1H-isoindol-1-one]
logD ([1]; 1-octanol/water, pH 5.000): 1.2 | logP ([1]; octanol/water, read-out: LogP (Potentiometric), cationic species): 0.6 ± 0.03 | logP ([1]; octanol/water, read-out: LogP (Potentiometric), neutral species): 3.81 ± 0.02 | logD ([1]; octanol/water, pH 1.2, pH 1.200, Stomach pH): 0.6 | logD ([1]; octanol/water, pH 6.5, pH 6.500): 2.55 | logD ([1]; octanol/water, pH 7.4, pH 7.400, Blood pH): 3.31 | logD ([1]; octanol/water, pH 1.000): 0.6 | logD ([1]; octanol/water, pH 3.000): 0.61 | logD ([1]; octanol/water, pH 4.000): 0.71 | logD ([1]; octanol/water, pH 6.000): 2.08 | logD ([1]; octanol/water, pH 7.000): 3 | logD ([1]; octanol/water, pH 8.000): 3.62 | logD ([1]; octanol/water, pH 9.000): 3.79 | logD ([1]; octanol/water, pH 10.000): 3.81 | logD ([1]; octanol/water, pH 11.000): 3.81 | logD ([1]; octanol/water, pH 12.000): 3.81 | pKa [2]: 7.74 ± 0.04
